Experimental data taken from ChEMBL document CHEMBL6087463, “Discovery of Novel 4,5,6,7-Tetrahydro-7H-pyrazolo[3,4-c]pyridin-7-one Derivatives as Orally Efficacious ATX Allosteric Inhibitors for the Treatment of Pulmonary Fibrosis” (J Med Chem, 2025).

Tests used:
[1] = biological target: Voltage-gated inwardly rectifying potassium channel KCNH2 (Homo sapiens, UniProt Q12809); assay: Inhibition of hERG expressed in CHO cells by automated patch-clamp assay; format: toxicity, cell-based
Autotaxin = Autotaxin (Homo sapiens, UniProt Q13822); assay: Inhibition of human ATX using LPC16:0 as substrate preincubated with compound for 20 mins followed by substrate addition and measured after 1 hr by fluorescence based microplate analysis

Sequence of Voltage-gated inwardly rectifying potassium channel KCNH2 (Q12809 whole entry): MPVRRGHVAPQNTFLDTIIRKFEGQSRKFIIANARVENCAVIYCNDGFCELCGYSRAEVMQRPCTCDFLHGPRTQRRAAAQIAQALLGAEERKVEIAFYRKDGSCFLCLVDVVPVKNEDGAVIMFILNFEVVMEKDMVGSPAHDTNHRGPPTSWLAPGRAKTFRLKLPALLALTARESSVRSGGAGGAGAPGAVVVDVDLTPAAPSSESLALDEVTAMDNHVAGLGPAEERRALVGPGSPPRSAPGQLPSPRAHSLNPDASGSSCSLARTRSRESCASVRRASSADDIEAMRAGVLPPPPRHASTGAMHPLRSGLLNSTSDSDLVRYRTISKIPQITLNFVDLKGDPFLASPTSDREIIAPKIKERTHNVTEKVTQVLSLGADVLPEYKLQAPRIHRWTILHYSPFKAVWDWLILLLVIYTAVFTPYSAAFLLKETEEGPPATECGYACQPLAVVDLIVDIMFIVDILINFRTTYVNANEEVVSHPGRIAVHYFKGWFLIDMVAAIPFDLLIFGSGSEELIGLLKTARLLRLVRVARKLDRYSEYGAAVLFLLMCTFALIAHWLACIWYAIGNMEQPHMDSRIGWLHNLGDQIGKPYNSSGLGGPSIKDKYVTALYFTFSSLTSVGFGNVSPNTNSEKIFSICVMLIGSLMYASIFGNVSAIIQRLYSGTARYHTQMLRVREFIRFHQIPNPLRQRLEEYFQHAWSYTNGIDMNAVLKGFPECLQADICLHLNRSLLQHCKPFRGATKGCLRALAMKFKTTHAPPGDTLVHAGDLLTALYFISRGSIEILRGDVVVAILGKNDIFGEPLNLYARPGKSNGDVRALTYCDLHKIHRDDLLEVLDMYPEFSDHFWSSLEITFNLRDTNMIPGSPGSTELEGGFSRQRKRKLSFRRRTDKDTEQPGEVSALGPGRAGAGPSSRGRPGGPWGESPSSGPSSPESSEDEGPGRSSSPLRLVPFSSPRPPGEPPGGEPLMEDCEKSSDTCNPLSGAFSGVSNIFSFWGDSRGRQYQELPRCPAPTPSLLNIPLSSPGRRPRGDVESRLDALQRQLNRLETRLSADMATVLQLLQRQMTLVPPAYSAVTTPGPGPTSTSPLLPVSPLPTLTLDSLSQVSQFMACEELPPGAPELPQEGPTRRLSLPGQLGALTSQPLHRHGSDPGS

Row | IC50 (Autotaxin) [µM] | Structure (SMILES) | IC50 [1] [µM]
1 | – | COCn1cc(-n2nc(C(=O)Nc3ccccc3C(=O)O)c3c2C(=O)N(c2ccccc2)CC3)cn1 | > 30
2 | 3.26 | CC(C)n1cc(-n2nc(C(=O)NN3CCCC(C(=O)O)C3)c3c2C(=O)N(c2ccccc2)CC3)cn1 (configuration not stated) | –
